Assay results taken from the supplement of paper PMC4862054.

Tests used:
Conditions in all cases: 72 h
SK-BR-3 = tested on: SK-BR-3
In short: (§1)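 Rows with a drug sensitivity score of zero were dropped, and EC50 was taken from the fitted percent-inhibition dose-response curve, censored at the highest concentration. Data were normalised on each plate to vehicle and a positive kill control and checked by Z'-factor. The assay seeded breast cancer cell lines in 20 µl onto 384-well plates pre-loaded with compound in 5 µl medium for 72 h, then added 2.5 µl CellTiter-Blue for 2 h at 37 °C and read fluorescence at 560/590 nm.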

MDA-MB-436 [1] = tested on: MDA-MB-436
In short: as §1

MDA-MB-468 [2] = tested on: MDA-MB-468
Protocol: (§2)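 Drug sensitivity and resistance testing (DSRT) of breast cancer cell lines in 384-well plates, 5 concentrations in 10-fold dilutions over a compound-specific 10,000-fold range. After 72 h, cytotoxicity was read by CellTox Green fluorescence and viability by CellTiter-Glo luminescence (multiplexed), normalised to DMSO and benzethonium chloride controls. EC50 is the inflection point of the fitted dose-response curve (bottom asymptote free, so it can be relative for partial curves) and is censored at the highest tested concentration. Rows with DSS 0 (no meaningful response) were excluded.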

MCF-10A = tested on: MCF-10A
Protocol: as §2

HCC1937 [3] = tested on: HCC1937
Protocol: as §2

MDA-MB-436 [4] = tested on: MDA-MB-436; remark: listed apart in the source
Protocol: as §2

BT-474 [5] = tested on: BT-474
Protocol: as §2

CAL-148 [6] = tested on: CAL-148
In short: as §1

HCC1599 = tested on: HCC1599
In short: as §1

Hs578T [7] = tested on: Hs578T
In short: as §1

MDA-MB-231 = tested on: MDA-MB-231
In short: as §1

CAL-120 [8] = tested on: CAL-120
In short: as §1

HCC1937 [9] = tested on: HCC1937; remark: listed apart in the source
In short: as §1

MDA-MB-468 [10] = tested on: MDA-MB-468; remark: listed apart in the source
In short: as §1

HCC1143 = tested on: HCC1143
In short: as §1

BT-549 = tested on: BT-549
In short: as §1

MFM-223 [11] = tested on: MFM-223
In short: as §1

BT-474 [12] = tested on: BT-474; remark: listed apart in the source
In short: as §1

Hs578T [13] = tested on: Hs578T; remark: listed apart in the source
Protocol: as §2

CAL-85-1 = tested on: CAL-85-1
Protocol: as §2

CAL-120 [14] = tested on: CAL-120; remark: listed apart in the source
Protocol: as §2

DU-4475 = tested on: DU-4475
Protocol: as §2

MFM-223 [15] = tested on: MFM-223; remark: listed apart in the source
Protocol: as §2

CAL-148 [16] = tested on: CAL-148; remark: listed apart in the source
Protocol: as §2

EC50, CellTiter-Blue viability (SK-BR-3)	EC50, CellTiter-Blue viability (MDA-MB-436 [1])	EC50, CellTiter-Blue viability (HCC1599)	EC50, CellTiter-Blue viability (MDA-MB-231)	EC50, CellTiter-Blue viability (HCC1937 [9])	EC50, CellTiter-Blue viability (MDA-MB-468 [10])	EC50, CellTiter-Blue viability (HCC1143)	EC50, CellTiter-Blue viability (BT-549)	EC50, CellTiter-Blue viability (BT-474 [12])	SMILES	EC50, CellTox Green (MDA-MB-468 [2])	EC50, CellTox Green (MCF-10A)	EC50, CellTox Green (HCC1937 [3])	EC50, CellTox Green (MDA-MB-436 [4])	EC50, CellTox Green (BT-474 [5])	EC50, CellTiter-Blue viability (CAL-148 [6])	EC50, CellTiter-Blue viability (Hs578T [7])	EC50, CellTiter-Blue viability (CAL-120 [8])	EC50, CellTiter-Blue viability (MFM-223 [11])	EC50, CellTox Green (Hs578T [13])	EC50, CellTox Green (CAL-85-1)	EC50, CellTox Green (CAL-120 [14])	EC50, CellTox Green (DU-4475)	EC50, CellTox Green (MFM-223 [15])	EC50, CellTox Green (CAL-148 [16])
6500 nM	> 10000 nM								Cc1ccc(NC(=O)c2ccc(CN3CCN(C)CC3)cc2)cc1Nc1nc(-c2cccnc2)cs1 [Masitinib]	7160 nM														
									COC(=O)c1ccc2c(c1)NC(=O)/C2=C(\Nc1ccc(N(C)C(=O)CN2CCN(C)CC2)cc1)c1ccccc1 [Nintedanib]	5880 nM	7350 nM	1650 nM	8830 nM	2540 nM										
10.2 nM	107 nM	24.1 nM	32.6 nM	14.6 nM	88.3 nM	27.4 nM	125 nM	28.6 nM	Cc1[nH]c2ccccc2c1CCNCc1ccc(/C=C/C(=O)NO)cc1 [Panobinostat]	133 nM	579 nM	71 nM		27.8 nM	12.9 nM	26.2 nM	11.1 nM	39.9 nM	28.6 nM	33.2 nM	68.4 nM	20.2 nM	182 nM	18.6 nM
		7360 nM	2370 nM	5960 nM	7800 nM	3.84 nM	7210 nM	8340 nM	CNC(=O)c1cc(Oc2ccc(NC(=O)Nc3ccc(Cl)c(C(F)(F)F)c3)c(F)c2)ccn1 [Regorafenib]			4880 nM				6690 nM	9380 nM	706 nM						
1.36 nM	> 1000 nM		0.95 nM	1.12 nM	0.39 nM	1 nM	0.19 nM	0.55 nM	CO[C@H]1C[C@@H]2CC[C@@H](C)[C@@](O)(O2)C(=O)C(=O)N2CCCC[C@H]2C(=O)O[C@H]([C@H](C)C[C@@H]2CC[C@@H](OP(C)(C)=O)[C@H](OC)C2)CC(=O)[C@H](C)/C=C(\C)[C@@H](O)[C@@H](OC)C(=O)[C@H](C)C[C@H](C)/C=C/C=C/C=C/1C [Ridaforolimus]				64.5 nM		0.64 nM	0.48 nM	1 nM	0.24 nM						
	540 nM	1610 nM					1560 nM		c1ccc2c(CCNc3ccc(Nc4ccncc4)cc3)c[nH]c2c1 [Serdemetan]						4530 nM	1540 nM						1810 nM	7780 nM	2310 nM
	2200 nM				5600 nM				CN(C)CCOc1ccc(/C(=C(/CCCl)c2ccccc2)c2ccccc2)cc1 [Toremifene]			3450 nM		6160 nM										
	2740 nM		92.4 nM	121 nM	35.9 nM	189 nM	273 nM		CC(C)C[C@@H](C(=O)N[C@H](C(=O)OC1CCCC1)c1ccccc1)[C@H](O)C(=O)NO [Tosedostat]	151 nM			9.14 nM	1560 nM	2750 nM	2140 nM	16.7 nM	2230 nM	> 10000 nM	140 nM	163 nM			
									COc1cc2c(NC3CCN(C(C)C)CC3)nc(N3CCC(F)(F)CC3)nc2cc1OCCCN1CCCC1 [UNC0642]	3390 nM	4920 nM	7070 nM	20.9 nM	2680 nM						2490 nM				8400 nM
4330 nM	138 nM		2480 nM		3330 nM	> 10000 nM	3750 nM	2290 nM	COc1cc2/c(=N/c3ccc(Br)cc3F)nc[nH]c2cc1OCC1CCN(C)CC1 [Vandetanib]							2060 nM	5260 nM	926 nM						
8.44 nM	7.68 nM	12 nM	2.85 nM	4.46 nM	2.99 nM	26.2 nM	50.8 nM	19.4 nM	COCC[n+]1c2c(n(Cc3cnccn3)c1C)C(=O)c1ccccc1C2=O [YM155]	9.24 nM	12.8 nM	24.8 nM	24.2 nM	17.9 nM	11.6 nM	102 nM	3.68 nM	17.3 nM	2600 nM	5.8 nM	6.34 nM	418 nM	836 nM	34.2 nM
